Measured values published in patent publication US6492329B1, “Cytokine and hemopoietic factor endogenous production enhancer and methods of use thereof” (Novelos Therapeutics, Inc., priority 1995, dated 2002).

Legend:
leukemia P388 cells [1] = experiment: Leukemia P388 in mice: ascitic fluid and survival (Example 14); conditions: for Accumulation of ascitic (weight gain, %): leukemia P388
Procedure: An influence of 7 day course of test article daily administration was studied in respect of tumor progression, which was estimated using the two integral indices: pace of mouse weight gain due to accumulation of ascitic fluid, and by animal mean survival time after inoculation.
The study was carried out on DBA/2 mice weighing 18-21 g. First, tumor cell passage was performed using 6 animals for each cell line. For this, cells kept at the temperature of the liquid nitrogen were de-frozen and adjusted to the concentration of 5×10^6 cells/mL by sterile Hanks' solution. Then, 6 mice were intra peritoneally inoculated with 0.2 mL of each line cellular suspension.
Ascitic fluid was collected 6 days after the inoculation with L1210 cells, 8 days after the inoculation with P388 ones and 18 days after inoculation with Erlich adenocarcinoma cells. Thus obtained, the samples of passaged tumor cells were used for the main experiments. The fluid liquid was dissolved by sterile Hanks' solution so that cell concentration be 5×10^6 cells/mL for P388 cells and Erlich adenocarcinoma cells, 5×10^5 cells/mL for L1210 cells.
Eleven groups of animals with no less than 15 mice each were formed for experiments with either tumor cell line. Mice were inoculated with 0.2 mL of resultant cell suspensions per mouse (10^6 P388 and Erlich adenocarcinoma cells/mouse, and 10^5 L1210 cells/mouse). 24 hours after the tumor cells inoculation, animals were given the first injections of the test articles or vehicles. The test article injections were made daily till the 14th day of the experiment or till the animal death. The volume of solutions injected comprised 0.01 mL/g body weight.
(§6) #1—intact animals receiving imitation of tumor cell inoculation (injection of normal saline) which further were treated with normal saline throughout the entire experiment;
(§7) #2—control animals, inoculated with tumor cells, which further were treated with test article vehicle (normal saline);

[2] = system: e-ras cells after UV-irradiation; experiment: Number of clones of e-ras cells after UV-irradiation; type: cell-based, rat
Procedure: (§1) To this end, these substances had been incubated for 72 hours with cells of rat embrional fibroblasts (REF) and the same cells, transformed with adenoviral E1A gene in complementation with ras-oncogene (e-ras cell line). Subsequent evaluation of the cellularity of experimental samples was carried out by counting the quantity of cell per milliliter (for REF cell line) or clones in dish (for e-ras cell line).
(§2) Cells were cultivated on DMEM medium supplemented with 10% fetal calf serum and […] gentamicin. Cultivation was carried out in Petri dishes.
(§3) E-ras cells were seeded at a cell density of 300 cells per 5 cm dish. 7 days after growth of e-ras cells had been started the quantity of clones was evaluated and the test articles were added into the dishes.
(§4) For the test-system for estimation of apoptosis regulation UV-induced cell death was triggered in a dose of 4 Dj. Test articles were added immediately after irradiation. Then, the quantity of cell per milliliter (for REF cell line) or clones in dish (for e-ras cell line) were monitored every 24 hours. For determination of DNA-fragmentation the electrophoresis in agarose gel was used at standard settings.

[3] = system: e-ras cell line (REF transformed with E1A and ras-oncogene); experiment: Number of clones of e-ras cells throughout 72-hr incubation; type: cell-based, rat
Procedure: as §1, §2, §3, §4

HL-60 cells = experiment: Proliferation/apoptosis of HL-60 tumor cells (cell number per well, flow cytofluorometry)
Procedure: Subsequent evaluation of the cell cycle parameters was carried out by the flow cytofluorometry technique.
A mononuclear fraction of blood leukocytes were obtained by centrifugation in gradient of fikoll-metrizoat (Histopaque, Sigma). […] Cell viability was estimated by the Trypan blue exclusion method, then the cell suspension was placed into wells of 96-well microtiter plates—200,000 cells per well. […] Cultivation was carried out in closed flasks, the medium volume was 12 mL, it was changed every four days by centrifugation. The nature of the cells growth was suspensive. […] 50 μL of each test solution were added to one or the other cell culture and thereafter cells were cultivated for 24-96 hours. Then, they were tested by the flow cytofluorometry to estimate DNA content in the cell nuclei. In case of apoptosis-like cellular death, the portion of cell nuclei with normal content of DNA became reduced, while the portion of cell nuclei containing abnormally small DNA quantity became larger.
The analysis procedure was the following: after incubation completion, cells were centrifuged and transferred to a standard phosphate isotonic buffer pH 7.4, containing RNA-ase A (20 μg/mL), ethidium bromide (fluorometric indicator for double stranded nucleic acid. 10 μg/mL) and MgCl2 (5 mM). After the cells were disintegrated by nonionic detergent Triton X-100 (final concentration 0.1%). The suspension of cell nuclei thus obtained was analyzed by flow cytofluorometry with an argon laser as a source of light (wave length 488 nm). The red fluorescence due to DNA bound ethidium bromide was taken to be the measure of DNA content in the cell nuclei.

[4] = system: rat embrional fibroblasts (REF) after UV-irradiation; experiment: Number of REF cells after UV-irradiation; type: cell-based
Procedure: as §1, §2
(§5) REF cells was cultivated with initial density of 800 000 cell per mL, evaluation of the cellularity was performed at 0, 24, 48 and 72 hours of incubation with the test articles.
as §4

leukemia P388 cells [5] = experiment: Leukemia P388 in mice: serum cytokines, ascitic fluid, survival (Example 5); conditions: for Accumulation of ascitic fluid (weight gain) / Concentration in serum: IFNα / Concentration in serum: IL-1 / Concentration in serum: IL-2 / Concentration in serum: IL-6 / Concentration in serum: TNFα: P388 mice
Procedure: (§8) An influence of 7 day course of test article daily administration was studied in respect of variations of serum cytokine levels (IL-1, IL-2, IL-6, IFNα, TNF). In parallel, the tumor progression was estimated using the two integral indices: pace of mouse weight gain due to accumulation of ascitic fluid, and by animal mean survival time after inoculation.
(§9) The study was carried out on DBA/2 mice weighing 18-21 g. First, tumor cell passage was performed using 6 animals for each cell line. For this, cells kept at the temperature of the liquid nitrogen were de-frozen and adjusted to the concentration of 5×10^6 cells/mL by sterile Hanks' solution. Then, 6 mice were intraperitoneally inoculated with 0.2 mL of each line cellular suspension.
(§10) Ascitic fluid was collected 6 days after the inoculation with L1210 cells and 8 days after the inoculation with P388 ones. Thus obtained, the samples of passaged tumor cells were used for the main experiments. The fluid liquid was dissolved by sterile Hanks' solution so that cell concentration be 5×10^6 cells/mL for P388 cells and 5×10^5 cells/mL for L1210 cells.
(§11) Nine groups of animals with no less than 15 mice each were formed for experiments with either tumor cell line. Mice were inoculated with 0.2 mL of resultant cell suspensions per mouse (10^6 P388 cells/mouse, and 10^5 L1210 cells/mouse). 24 hours after the tumor cells inoculation. animals were given the first injections of the test articles or vehicles. The test article injections were made daily till the 14th day of the experiment or until the animal's death. The volume of solutions injected comprised 0.01 mL/g body weight.
as §6, §7

leukemia L1210 cells [6] = experiment: Leukemia L1210 in mice: serum cytokines, ascitic fluid, survival (Example 5); conditions: for Accumulation of ascitic fluid (weight gain) / Concentration in serum: IFNα / Concentration in serum: IL-1 / Concentration in serum: IL-2 / Concentration in serum: IL-6 / Concentration in serum: TNFα: L1210 mice
Procedure: as §8, §9, §10, §11, §6, §7

[7] = system: Erlich adenocarcinoma cells; experiment: Erlich adenocarcinoma in mice: ascitic fluid and survival (Example 14); conditions: for Accumulation of ascitic (weight gain, %): Erlich adenocarcinoma
normal human lymphocytes = experiment: Proliferation/apoptosis of normal human lymphocytes (cell number per well, flow cytofluorometry); type: cell-based
[8] = system: rat embrional fibroblasts (REF); experiment: Number of REF cells throughout 72-hr incubation; type: cell-based
Procedure: as §1, §2, §5, §4

leukemia L1210 cells [9] = experiment: Leukemia L1210 in mice: ascitic fluid and survival (Example 14); conditions: for Accumulation of ascitic (weight gain, %): leukemia L1210

SMILES: OO [0.003% H2O2, hydrogen peroxide]
- Accumulation of ascitic (weight gain, %) (leukemia P388 cells [1]; number of injection 0): 0.7 ± 0.2%
- Accumulation of ascitic (weight gain, %) (leukemia P388 cells [1]; number of injection 3): 4.1 ± 0.4%
- Accumulation of ascitic (weight gain, %) (leukemia P388 cells [1]; number of injection 7): 19.0 ± 2.1%
- Mean survival time (leukemia P388 cells [1]; mice inoculated with leukemia P388 cells): 21.2 ± 0.8
- number of clones of e-ras cells after UV-irradiation (M ± m) ([2]; 0 hours): 288 ± 4
- number of clones of e-ras cells after UV-irradiation (M ± m) ([2]; 24 hours): 186 ± 4
- number of clones of e-ras cells after UV-irradiation (M ± m) ([2]; 48 hours): 124 ± 3
- number of clones of e-ras cells after UV-irradiation (M ± m) ([2]; 72 hours): 84 ± 6
- number of clones of e-ras cells (M ± m) ([3]; 0 hours of incubation): 288 ± 4
- number of clones of e-ras cells (M ± m) ([3]; 24 hours of incubation): 286 ± 4
- number of clones of e-ras cells (M ± m) ([3]; 48 hours of incubation): 264 ± 3
- number of clones of e-ras cells (M ± m) ([3]; 72 hours of incubation): 234 ± 6
- number of HL-60 cells per well (HL-60 cells; 24 hours incubation): 122 ± 6 × 10^4 cells
- number of HL-60 cells per well (HL-60 cells; 48 hours incubation): 186 ± 12 × 10^4 cells
- number of HL-60 cells per well (HL-60 cells; 72 hours incubation): 488 ± 24 × 10^4 cells
- number of HL-60 cells per well (HL-60 cells; 96 hours incubation): 712 ± 22 × 10^4 cells
- number of REF cells after UV-irradiation (M ± m) ([4]; 0 hours): 822 ± 11 × 10^3 cells
- number of REF cells after UV-irradiation (M ± m) ([4]; 24 hours): 365 ± 14 × 10^3 cells
- number of REF cells after UV-irradiation (M ± m) ([4]; 48 hours): 258 ± 33 × 10^3 cells
- number of REF cells after UV-irradiation (M ± m) ([4]; 72 hours): 159 ± 24 × 10^3 cells
- Accumulation of ascitic fluid (weight gain) (leukemia P388 cells [5]; 0 injections): 0.63 ± 0.15%
- Concentration in serum: IFNα (leukemia P388 cells [5]; 0 injections): 129. ± 10.0 pg/mL
- Concentration in serum: IL-1 (leukemia P388 cells [5]; 0 injections): 15.5 ± 2.04 pg/mL
- Concentration in serum: IL-2 (leukemia P388 cells [5]; 0 injections): 14.95 ± 2.16 pg/mL
- Concentration in serum: IL-6 (leukemia P388 cells [5]; 0 injections): 134.0 ± 15.6 pg/mL
- Concentration in serum: TNFα (leukemia P388 cells [5]; 0 injections): 119. ± 9.13 pg/mL
- Accumulation of ascitic fluid (weight gain) (leukemia P388 cells [5]; 3 daily injections): 5.4 ± 0.62%
- Concentration in serum: IFNα (leukemia P388 cells [5]; 3 daily injections): 205.8 ± 18.3 pg/mL
- Concentration in serum: IL-1 (leukemia P388 cells [5]; 3 daily injections): 44.7 ± 6.14 pg/mL
- Concentration in serum: IL-2 (leukemia P388 cells [5]; 3 daily injections): 22.0 ± 2.81 pg/mL
- Concentration in serum: IL-6 (leukemia P388 cells [5]; 3 daily injections): 156.0 ± 16.3 pg/mL
- Concentration in serum: TNFα (leukemia P388 cells [5]; 3 daily injections): 144.5 ± 12.8 pg/mL
- Accumulation of ascitic fluid (weight gain) (leukemia P388 cells [5]; 7 daily injections): 20.3 ± 2.28%
- Concentration in serum: IFNα (leukemia P388 cells [5]; 7 daily injections): 190. ± 16.7 pg/mL
- Concentration in serum: IL-1 (leukemia P388 cells [5]; 7 daily injections): 28.6 ± 4.11 pg/mL
- Concentration in serum: IL-2 (leukemia P388 cells [5]; 7 daily injections): 40.8 ± 5.12 pg/mL
- Concentration in serum: IL-6 (leukemia P388 cells [5]; 7 daily injections): 110.9 ± 12.5 pg/mL
- Concentration in serum: TNFα (leukemia P388 cells [5]; 7 daily injections): 248. ± 20.7 pg/mL
- Mean survival time (leukemia P388 cells [5]; mice inoculated with leukemia P388 cells, daily injections till day 14 or death): 9.9 ± 0.24
- Accumulation of ascitic fluid (weight gain) (leukemia L1210 cells [6]; 0 injections): 0.79%
- Concentration in serum: IFNα (leukemia L1210 cells [6]; 0 injections): 133.7 pg/mL
- Concentration in serum: IL-1 (leukemia L1210 cells [6]; 0 injections): 17.07 pg/mL
- Concentration in serum: IL-2 (leukemia L1210 cells [6]; 0 injections): 16.18 pg/mL
- Concentration in serum: IL-6 (leukemia L1210 cells [6]; 0 injections): 120.9 pg/mL
- Concentration in serum: TNFα (leukemia L1210 cells [6]; 0 injections): 110. pg/mL
- Accumulation of ascitic fluid (weight gain) (leukemia L1210 cells [6]; 3 daily injections): 6.12%
- Concentration in serum: IFNα (leukemia L1210 cells [6]; 3 daily injections): 189. pg/mL
- Concentration in serum: IL-1 (leukemia L1210 cells [6]; 3 daily injections): 38.15 pg/mL
- Concentration in serum: IL-2 (leukemia L1210 cells [6]; 3 daily injections): 23.5 pg/mL
- Concentration in serum: IL-6 (leukemia L1210 cells [6]; 3 daily injections): 140. pg/mL
- Concentration in serum: TNFα (leukemia L1210 cells [6]; 3 daily injections): 158.0 pg/mL
- Accumulation of ascitic fluid (weight gain) (leukemia L1210 cells [6]; 7 daily injections): 21.61%
- Concentration in serum: IFNα (leukemia L1210 cells [6]; 7 daily injections): 209. pg/mL
- Concentration in serum: IL-1 (leukemia L1210 cells [6]; 7 daily injections): 23.6 pg/mL
- Concentration in serum: IL-2 (leukemia L1210 cells [6]; 7 daily injections): 45.5 pg/mL
- Concentration in serum: IL-6 (leukemia L1210 cells [6]; 7 daily injections): 103. pg/mL
- Concentration in serum: TNFα (leukemia L1210 cells [6]; 7 daily injections): 220.0 ± pg/mL
- Mean survival time (leukemia L1210 cells [6]; mice inoculated with leukemia L1210 cells, daily injections till day 14 or death): 9.7 ± 0.21
- Accumulation of ascitic (weight gain, %) ([7]; number of injection 0): 0.9 ± 0.2%
- Accumulation of ascitic (weight gain, %) ([7]; number of injection 3): 14.1 ± 0.6%
- Accumulation of ascitic (weight gain, %) ([7]; number of injection 7): 27.2 ± 1.2%
- Mean survival time ([7]; mice inoculated with Erlich adenocarcinoma cells): 9.8 ± 0.8
- number of normal lymphocytes per well (normal human lymphocytes; 24 hours incubation): 28 ± 2 × 10^4 cells
- number of normal lymphocytes per well (normal human lymphocytes; 48 hours incubation): 73 ± 5 × 10^4 cells
- number of normal lymphocytes per well (normal human lymphocytes; 72 hours incubation): 123 ± 8 × 10^4 cells
- number of normal lymphocytes per well (normal human lymphocytes; 96 hours incubation): 206 ± 8 × 10^4 cells
- number of REF cells (M ± m) ([8]; 0 hours of incubation): 822 ± 11 × 10^3 cells
- number of REF cells (M ± m) ([8]; 24 hours of incubation): 1365 ± 14 × 10^3 cells
- number of REF cells (M ± m) ([8]; 48 hours of incubation): 2598 ± 63 × 10^3 cells
- number of REF cells (M ± m) ([8]; 72 hours of incubation): 5059 ± 34 × 10^3 cells
- Accumulation of ascitic (weight gain, %) (leukemia L1210 cells [9]; number of injection 0): 0.77 ± 0.2%
- Accumulation of ascitic (weight gain, %) (leukemia L1210 cells [9]; number of injection 3): 6.1 ± 0.4%
- Accumulation of ascitic (weight gain, %) (leukemia L1210 cells [9]; number of injection 7): 19.2 ± 2.2%
- Mean survival time (leukemia L1210 cells [9]; mice inoculated with leukemia L1210 cells): 9.2 ± 0.8
